Experiments:
[1] = Dissociation constant was determined; type: physicochemical
Nucleic Acid = experiment: Inhibitory activity against RNA target using functional assay

Kd [1]: 6.5 µM
IC50 (Nucleic Acid): 14 µM
Compound: NCC[C@@H](NC(=O)c1ccc(-c2cccc(NC(=O)c3ccc4nc(O)c(O)nc4c3)c2)o1)C(=O)N1CCNCC1
